The values below come from patent publication US10364256B2 (GlaxoSmithKline Intellectual Property Development Limited, priority 2015, dated 2019).

As usually defined, the IC50 is the concentration that gives 50% inhibition. Higher therefore signals weaker potency.

Assay [1] concerns the target T1, full length Keap1 protein / full length NRF2 protein (Homo sapiens, UniProt Q14145).
T1 construct: full length NRF2 protein and full length Keap1 protein (Keap1 exists a dimer) are used; His
Put plainly: NRF2-Keap1 TR-FRET Assay. It counts as binding. The following applies: 25 nM Keap1-FlagHis and 50 nM biotin-NRF2 added. The method in brief:
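Displacement of biotinylated full-length NRF2 from full-length Keap1 read by Eu/APC TR-FRET (665/615 nm) after 1 h detection at RT. Compound, 3-fold series, first incubated with Keap1 at 37 °C for 2.25 h, NRF2 then added at 4 °C for 1.25 h; pIC50 by four-parameter equation.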
A general note: TR-FRET usually uses a lanthanide donor and a delayed reading to cut background.

Assay [2] has as its target T2, Keap1 Kelch domain (321-609) / TAMRA-labeled 16mer NRF2 peptide (ETGE motif) (Homo sapiens, UniProt Q14145).
T2 construct: the Kelch domain (321-609) of Keap1 is used
The assay can be described thus: NRF2-Keap1 FP Assay (Keap1 Kelch fluorescence polarization). It counts as binding. The following applies: 20 nM Keap1 (321-609), 8 nM Tamra labeled peptide. The gist of the method:
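Compound dilutions (3-fold) were incubated 1 hr at room temperature with 20 nM Keap1 Kelch (321-609) and 8 nM TAMRA-labeled ETGE 16mer peptide. Buffer was 50 mM Tris pH 8.0, 100 mM NaCl, 5 mM MgCl2, 1 mM DTT, 2 mM CHAPS, 0.005% BSA. Fluorescence polarization (mP) was normalized to controls and fitted with a four-parameter equation to give pIC50.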
For orientation: Fluorescence polarisation rises when a labelled molecule tumbles more slowly, as on binding a larger partner.

T1 sequence (Q14145 whole entry): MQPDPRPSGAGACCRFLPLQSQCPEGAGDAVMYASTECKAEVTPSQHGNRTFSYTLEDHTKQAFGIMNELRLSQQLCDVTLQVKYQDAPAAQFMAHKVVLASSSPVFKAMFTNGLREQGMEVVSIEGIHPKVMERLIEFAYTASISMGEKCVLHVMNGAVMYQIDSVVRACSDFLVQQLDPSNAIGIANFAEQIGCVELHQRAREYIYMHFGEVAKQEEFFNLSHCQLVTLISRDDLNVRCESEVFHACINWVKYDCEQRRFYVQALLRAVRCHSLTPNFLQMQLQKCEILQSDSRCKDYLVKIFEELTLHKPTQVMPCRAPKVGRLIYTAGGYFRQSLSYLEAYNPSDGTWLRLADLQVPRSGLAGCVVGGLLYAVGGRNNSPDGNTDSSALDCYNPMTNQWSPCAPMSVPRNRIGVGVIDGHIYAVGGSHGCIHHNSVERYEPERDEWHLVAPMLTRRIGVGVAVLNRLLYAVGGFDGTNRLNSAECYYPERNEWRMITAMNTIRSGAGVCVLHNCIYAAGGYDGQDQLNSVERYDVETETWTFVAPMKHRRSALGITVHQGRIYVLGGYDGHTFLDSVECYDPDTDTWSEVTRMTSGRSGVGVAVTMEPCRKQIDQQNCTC
T2 sequence (Q14145 321-609): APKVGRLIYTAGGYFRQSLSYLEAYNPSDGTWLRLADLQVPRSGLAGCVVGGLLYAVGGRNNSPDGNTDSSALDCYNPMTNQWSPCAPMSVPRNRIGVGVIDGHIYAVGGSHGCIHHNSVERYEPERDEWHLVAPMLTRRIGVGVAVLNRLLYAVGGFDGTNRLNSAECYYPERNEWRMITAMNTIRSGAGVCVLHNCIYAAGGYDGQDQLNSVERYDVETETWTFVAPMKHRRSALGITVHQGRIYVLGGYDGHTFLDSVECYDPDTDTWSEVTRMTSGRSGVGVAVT

Turning to `Cn1cc([C@@H]2C[C@H]2c2c(C(=O)O)cnn2-c2cccc(-c3cccc(OCC4CCCSC4)c3)c2)nn1` (mixture of isomers) [Example 144, 5-((1,2-trans)-2-(1-Methyl-1H-1,2,3-triazol-4-yl)cyclopropyl)-1-(3′-((tetrahydro-2H-thiopyran-3-yl)methoxy)-[1,1′-biphenyl]-3-yl)-1H-pyrazole-4-carboxylic Acid], the concentration for half-maximal inhibition (IC50) was in the range of 100 to 1000 nM in assay [1] and 10 to 100 nM in assay [2].

On to `Cn1cc([C@@H]2C[C@H]2c2c(C(=O)O)cnn2-c2cccc(-c3cccc(OCC4CCC(F)(F)CC4)c3)c2)nn1` (racemic) [Example 145, 1-(3′-((4,4-Difluorocyclohexyl)methoxy)-[1,1′-biphenyl]-3-yl)-5-((1,2-trans)-2-(1-methyl-1H-1,2,3-triazol-4-yl)cyclopropyl)-1H-pyrazole-4-carboxylic acid], for which the IC50 in assay [1] is 100 to 1000 nM; in assay [2], 10 to 100 nM.

Consider `Cn1cc([C@@H]2C[C@H]2c2c(C(=O)O)cnn2-c2cccc(-c3cccc(OC[C@H]4CC[C@H](C(F)(F)F)CC4)c3)c2)nn1` (racemic) [Example 146, 5-((1,2-trans)-2-(1-Methyl-1H-1,2,3-triazol-4-yl)cyclopropyl)-1-(3′-(((1r,4R)-4-(trifluoromethyl)cyclohexyl)methoxy)-[1,1′-biphenyl]-3-yl)-1H-pyrazole-4-carboxylic acid], for which the IC50 is 100 to 1000 nM in assay [1] and 10 to 100 nM in assay [2].

Regarding `Cn1cc([C@@H]2C[C@H]2c2c(C(=O)O)cnn2-c2cccc(-c3cccc(OCC4CCCC(C(F)(F)F)C4)c3)c2)nn1` (mixture of isomers) [Example 147, 5-((1,2-trans)-2-(1-Methyl-1H-1,2,3-triazol-4-yl)cyclopropyl)-1-(3′-((3-(trifluoromethyl)cyclohexyl)methoxy)-[1,1′-biphenyl]-3-yl)-1H-pyrazole-4-carboxylic acid], the IC50 in assay [1] and in assay [2] was 100 to 1000 nM in each case.

For `Cn1cc([C@@H]2C[C@H]2c2c(C(=O)O)cnn2-c2cccc(-c3cccc(OCC4CCCCC4C(F)(F)F)c3)c2)nn1` (mixture of isomers) [Example 148, 5-((1,2-trans)-2-(1-Methyl-1H-1,2,3-triazol-4-yl)cyclopropyl)-1-(3′-((2-(trifluoromethyl)cyclohexyl)methoxy)-[1,1′-biphenyl]-3-yl)-1H-pyrazole-4-carboxylic acid], the IC50 was 100 to 1000 nM in assay [1] and 10 to 100 nM in assay [2].

With `Cn1cc([C@@H]2C[C@H]2c2c(C(=O)O)cnn2-c2cccc(-c3cccc(OCC4CCSCC4)c3)c2)nn1` (racemic) [Example 149, 5-((1,2-trans)-2-(1-Methyl-1H-1,2,3-triazol-4-yl)cyclopropyl)-1-(3′-((tetrahydro-2H-thiopyran-4-yl)methoxy)-[1,1′-biphenyl]-3-yl)-1H-pyrazole-4-carboxylic acid], the 50% inhibitory concentration (IC50) in assay [1] and in assay [2] was 100 to 1000 nM each time.

Regarding `CCC1CCC(COc2cccc(-c3cccc(-n4ncc(C(=O)O)c4[C@@H]4C[C@H]4c4cn(C)nn4)c3)c2)CC1` (mixture of isomers) [Example 150, 1-(3′-((4-Ethylcyclohexyl)methoxy)-[1,1′-biphenyl]-3-yl)-5-((1,2-trans)-2-(1-methyl-1H-1,2,3-triazol-4-yl)cyclopropyl)-1H-pyrazole-4-carboxylic acid], the 50% inhibitory concentration (IC50) in assay [1] and in assay [2] was 100 to 1000 nM each time.

As for `Cn1cc([C@@H]2C[C@H]2c2c(C(=O)O)cnn2-c2cccc(-c3cccc(OCC4CCCCC4)c3F)c2)nn1` (racemic) [Example 152, 1-(3′-(Cyclohexylmethoxy)-2′-fluoro-[1,1′-biphenyl]-3-yl)-5-((1,2-trans)-2-(1-methyl-1H-1,2,3-triazol-4-yl)cyclopropyl)-1H-pyrazole-4-carboxylic Acid], the 50% inhibitory concentration (IC50) in assay [1] fell in the range of 100 to 1000 nM; in assay [2] it was 10 to 100 nM.
